Tests used:
Experiment in all cases: relative viability (nuclei count vs DMSO), 5 days (fraction); higher = more cells survive
[1] = compound: CCN1C(=O)C2=CC(=C(N=C2N(C1=O)C3CC3)N)C(=O)N + CC1(C)CCC(c2ccc(Cl)cc2)=C(CN2CCN(c3ccc(C(=O)NS(=O)(=O)c4ccc(N[C@H](CCN5CCOCC5)CSc5ccccc5)c(S(=O)(=O)C(F)(F)F)c4)cc3)CC2)C1 [Navitoclax] (partner 0.5 µM)
Method in brief: (§1)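 Nuclei were stained with Hoechst during a one-step fixation (final 0.05% Triton X-100, 1% formaldehyde, 1 ug/ml Hoechst) carried out 5 days after dosing, then counted on 4× images. The cells, lung cancer lines in 1536-well plates, had been dosed by pin tool the day after seeding with one drug alone or a fixed anchor-drug dose plus five library-drug doses (not always all listed) in √10 steps. Relative viability is the nuclei count in treated wells divided by that in vehicle wells, and each value is the median of duplicate plates.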

[2] = compound: CCN1C(=O)C2=CC(=C(N=C2N(C1=O)C3CC3)N)C(=O)N + COc1cc2c(Oc3ccc(NC(=O)C4(C(=O)Nc5ccc(F)cc5)CC4)cc3F)ccnc2cc1OCCCN1CCOCC1 [Foretinib] (partner 0.25 µM)
Method in brief: as §1

[3] = compound: CCN1C(=O)C2=CC(=C(N=C2N(C1=O)C3CC3)N)C(=O)N + COc1cccc2cc(-c3nc([C@H]4CC[C@H](C(=O)O)CC4)n4ncnc(N)c34)[nH]c12 [OSI-027] (partner 0.5 µM)
Method in brief: as §1

[4] = compound: CCN1C(=O)C2=CC(=C(N=C2N(C1=O)C3CC3)N)C(=O)N + Cc1cc(Nc2cc(N3CCN(C)CC3)nc(Sc3ccc(NC(=O)C4CC4)cc3)n2)n[nH]1 [Tozasertib] (partner 0.1 µM)
Method in brief: as §1

[5] = compound: CCN1C(=O)C2=CC(=C(N=C2N(C1=O)C3CC3)N)C(=O)N + Nc1nc2[nH]cc(CCc3ccc(C(=O)N[C@@H](CCC(=O)O)C(=O)O)cc3)c2c(=O)[nH]1 [Pemetrexed] (partner 0.2 µM)
Method in brief: as §1

Row | Cell Line | relative viability ([1]; first compound 0.253 µM) | relative viability ([1]; first compound 0.8 µM) | relative viability ([1]; first compound 2.53 µM) | relative viability ([1]; first compound 8 µM) | relative viability ([2]; first compound 0.253 µM) | relative viability ([2]; first compound 0.8 µM) | relative viability ([2]; first compound 2.53 µM) | relative viability ([2]; first compound 8 µM) | relative viability ([3]; first compound 0.253 µM) | relative viability ([3]; first compound 0.8 µM) | relative viability ([3]; first compound 2.53 µM) | relative viability ([3]; first compound 8 µM) | relative viability ([4]; first compound 0.253 µM) | relative viability ([4]; first compound 0.8 µM) | relative viability ([4]; first compound 2.53 µM) | relative viability ([4]; first compound 8 µM) | relative viability ([5]; first compound 0.253 µM) | relative viability ([5]; first compound 0.8 µM) | relative viability ([5]; first compound 2.53 µM) | relative viability ([5]; first compound 8 µM)
1 | NCI-H23 | 0.772 | 0.924 | 0.659 | 0.769 | 0.942 | 1.13 | 1.07 | 1.11 | 0.494 | 0.64 | 0.587 | 0.583 | 0.415 | 0.352 | 0.352 | 0.335 | 0.785 | 0.734 | 0.677 | 0.634
2 | NCI-H322M | 1.06 | 1.12 | 1.14 | 1.13 | 0.953 | 0.958 | 0.988 | 1.1 | 0.498 | 0.498 | 0.512 | 0.549 | 0.526 | 0.475 | 0.493 | 0.511 | 0.632 | 0.541 | 0.634 | 0.6
3 | NCI-H441 | 0.768 | 0.482 | 0.64 | 0.649 | 0.925 | 0.82 | 0.956 | 0.995 | 0.686 | 0.746 | 0.703 | 0.583 | 0.619 | 0.571 | 0.54 | 0.458 | 0.272 | 0.246 | 0.263 | 0.26
4 | NCI-H460 | 1.17 | 1.08 | 1.07 | 1.14 | 0.992 | 1.04 | 0.979 | 0.943 | 0.586 | 0.599 | 0.577 | 0.547 | 0.436 | 0.455 | 0.33 | 0.112 | 0.0628 | 0.0522 | 0.0677 | 0.0646
5 | NCI-H520 | 1.04 | 1.22 | 1.02 | 1.41 | 0.544 | 0.709 | 0.827 | 0.899 | 0.296 | 0.315 | 0.346 | 0.304 | 0.426 | 0.397 | 0.382 | 0.451 | 0.635 | 0.64 | 0.703 | 0.657
6 | NCI-H596 | 1.07 | 0.904 | 0.999 | 1.17 | 0.956 | 0.94 | 0.788 | 0.962 | 0.735 | 0.7 | 0.843 | 0.679 | 0.968 | 0.944 | 0.69 | 1.1 | 0.465 | 0.507 | 0.573 | 0.497
7 | NCI-H647 | 1.18 | 1.25 | 1.14 | 1.08 | 1.23 | 1.14 | 1.07 | 1.23 | 0.598 | 0.724 | 0.647 | 0.591 | 0.33 | 0.304 | 0.273 | 0.277 | 0.174 | 0.205 | 0.157 | 0.185
8 | NCI-H838 | 1.21 | 1.19 | 1.13 | 1.09 | 1.07 | 0.989 | 0.868 | 0.926 | 0.404 | 0.406 | 0.41 | 0.374 | 0.258 | 0.203 | 0.28 | 0.234 | 0.239 | 0.274 | 0.242 | 0.248
9 | NCI-H1355 | 0.969 | 0.987 | 0.861 | 0.921 | 0.996 | 1.01 | 0.963 | 0.937 | 0.5 | 0.464 | 0.455 | 0.376 | 0.587 | 0.616 | 0.509 | 0.515 | 1.03 | 1 | 1.03 | 0.96
10 | NCI-H1395 | 1.1 | 1.34 | 1.13 | 1.73 | 1.01 | 0.868 | 0.952 | 0.991 | 0.62 | 0.587 | 0.697 | 0.593 | 0.697 | 0.693 | 0.722 | 0.65 | 0.922 | 0.811 | 0.979 | 0.816
11 | NCI-H1437 | 1.12 | 1.09 | 1.07 | 1.12 | 1.23 | 1.21 | 1.19 | 1.21 | 0.939 | 0.867 | 0.919 | 0.894 | 0.378 | 0.42 | 0.374 | 0.411 | 0.294 | 0.316 | 0.287 | 0.304
12 | NCI-H1650 | 1.1 | 1.25 | 1.1 | 1.19 | 0.913 | 1.15 | 0.955 | 1.12 | 0.577 | 0.444 | 0.629 | 0.544 | 0.394 | 0.404 | 0.38 | 0.342 | 0.38 | 0.324 | 0.333 | 0.382
13 | NCI-H1651 | 0.996 | 1.27 | 0.969 | 1.03 | 0.921 | 0.838 | 0.656 | 0.772 | 0.643 | 0.691 | 0.734 | 0.606 | 0.622 | 0.586 | 0.631 | 0.508 | 0.582 | 0.608 | 0.588 | 0.597
14 | NCI-H1666 | 0.991 | 0.942 | 0.645 | 0.867 |  | 0.857 | 0.948 | 1.04 |  | 0.838 | 0.863 | 0.834 |  | 0.608 | 0.584 | 0.618 | 0.844 | 0.879 | 0.812 | 0.799
15 | NCI-H1734 | 0.737 | 0.813 | 0.778 | 0.888 | 0.835 | 0.764 | 0.745 | 1.01 | 0.734 | 0.554 | 0.531 | 0.596 | 0.373 | 0.278 | 0.233 | 0.25 | 0.432 | 0.392 | 0.405 | 0.423
